# What was measured:
# HIV-1 protease = HIV-1 protease (Human immunodeficiency virus type 1 group M subtype B, UniProt P12497); experiment: biochemical
# Text: (§1) The biological activity compound (4) was compared with the known enzyme inhibitor (1) N-(2(R)-Hydroxy-1(S)-indonyl)-5(S)-[tert-butyloxycarbonyl)amino]-4(S)-hydroxy-6-(4-hydroxyphenyl)-2-(R) -[(4-hydroxyphenyl)methyl]hexanamide. See, e.g., Thompson, W. J. et al., J. Med. Chem. 1992, 35, 1685) according to methods recited in the Thompson, supra. and Heimbach, J. C. et al., Biochem. Biophys. Res. Commun. 1989, 164, 955-960.
# HIV-1 = experiment: CIC95 (cell culture assay of Thompson, not further described); assay type: cell-based
# Text: as §1
smiles,measurement,setting,value
CC(=O)C(=O)COc1ccc(C[C@H](C[C@H](O)[C@H](Cc2ccccc2)NC(=O)OC(C)(C)C)C(=O)N[C@H]2c3ccccc3C[C@H]2O)cc1 [Compound 4],IC50,HIV-1 protease,0.075 nM
same,IC95,HIV-1; Human immunodeficiency virus 1,< 6 nM
same,CIC95/IC50,HIV-1; ratio of CIC95 to IC50,< 80
